Assay results reported in ChEMBL document CHEMBL1141935, “Aminopiperidine indazoles as orally efficacious melanin concentrating hormone receptor-1 antagonists” (Bioorg Med Chem Lett, 2005).

Columns and labels:
[1] = target: T1, Melanin-concentrating hormone receptor 1 (Homo sapiens, UniProt Q99705); assay: Functional antagonism of MCH-mediated calcium release by FLIPR using human MCHr1 from neuronal IMR32 cells; type: cell-based, IMR-32
[2] = target: T1, Melanin-concentrating hormone receptor 1; assay: Binding affinity to human MCHr1 from neuronal IMR32 cells; type: cell-based, IMR-32
[3] = Half life in DIO mice brain at 10 mg/kg, po; type: ADME, organism-based; design: dose 10 mg/kg, route oral; conditions: mouse
[4] = Half life in DIO mice plasma at 10 mg/kg, po; type: ADME, organism-based; design: dose 10 mg/kg, route oral; conditions: mouse
[5] = Cmax in DIO mice brain at 10 mg/kg, po; type: ADME, organism-based; design: dose 10 mg/kg, route oral; conditions: mouse
[6] = Cmax in DIO mice plasma at 10 mg/kg, po; type: ADME, organism-based; design: dose 10 mg/kg, route oral; conditions: mouse
[7] = AUC in DIO mice brain at 10 mg/kg, po; type: ADME, organism-based; design: dose 10 mg/kg, route oral; conditions: mouse
[8] = AUC in DIO mice plasma at 10 mg/kg, po; type: ADME, organism-based; design: dose 10 mg/kg, route oral; conditions: mouse

T1 sequence (Q99705 whole entry): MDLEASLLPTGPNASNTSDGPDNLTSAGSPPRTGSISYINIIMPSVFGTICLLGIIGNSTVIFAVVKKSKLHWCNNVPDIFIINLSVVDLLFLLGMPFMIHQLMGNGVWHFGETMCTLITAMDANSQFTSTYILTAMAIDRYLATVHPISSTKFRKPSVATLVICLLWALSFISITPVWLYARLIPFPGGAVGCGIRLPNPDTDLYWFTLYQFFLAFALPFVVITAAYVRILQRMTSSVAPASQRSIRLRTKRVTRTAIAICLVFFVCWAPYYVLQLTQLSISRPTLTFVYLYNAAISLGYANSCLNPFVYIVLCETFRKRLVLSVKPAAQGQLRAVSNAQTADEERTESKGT

IC50 [1] [nM] | IC50 [2] [nM] | half-life [3] [h] | half-life [4] [h] | Cmax [5] [ng/mL] | Cmax [6] [ng/mL] | AUC [7] [ng·h/mL] | AUC [8] [ng·h/mL] | Structure (SMILES)
1060 | 110 |  |  |  |  |  |  | Cc1ccc2[nH]nc(NC3CCN(Cc4ccc5c(c4)OCO5)CC3)c2c1
70 | 6 | 4 | 3.3 | 3080 | 1520 | 22800 | 14400 | O=[N+]([O-])c1ccc2[nH]nc(NC3CCN(Cc4ccc5c(c4)OCO5)CC3)c2c1
> 10000 | 440 |  |  |  |  |  |  | c1ccc2c(NC3CCN(Cc4ccc5c(c4)OCO5)CC3)[nH]nc2c1
5200 | 240 |  |  |  |  |  |  | COc1ccc(CN2CCC(Nc3[nH]nc4ccc(Cl)cc34)CC2)c(F)c1
3400 | 220 |  |  |  |  |  |  | N#Cc1ccc2[nH]nc(NC3CCN(Cc4ccc5c(c4)OCO5)CC3)c2c1
550 | 9 |  |  |  |  |  |  | Clc1ccc2c(c1)c(NC1CCN(Cc3ccc4c(c3)OCO4)CC1)nn2Cc1ccccn1
4500 | 150 |  |  |  |  |  |  | COc1cccc(CN2CCC(Nc3[nH]nc4ccc(Cl)cc34)CC2)c1
1380 | 100 |  |  |  |  |  |  | Cc1ccc(CN2CCC(Nc3[nH]nc4ccc(Cl)cc34)CC2)cc1C
4910 | 50 |  |  |  |  |  |  | Clc1ccc2[nH]nc(NC3CCN(Cc4ccc5nsnc5c4)CC3)c2c1
> 10000 | 850 |  |  |  |  |  |  | Clc1ccc2[nH]nc(NC3CCN(Cc4ccccc4)CC3)c2c1
290 | 20 | 6 | 4.7 | 758 | 1690 | 5340 | 11900 | Clc1ccc2c(c1)c(NC1CCN(Cc3ccc4c(c3)OCO4)CC1)nn2Cc1cccnc1
1890 | 70 |  |  |  |  |  |  | Clc1ccc2[nH]nc(NC3CCN(Cc4ccc5c(c4)OCCO5)CC3)c2c1
> 10000 | 330 |  |  |  |  |  |  | COc1cccc2[nH]nc(NC3CCN(Cc4ccc5c(c4)OCO5)CC3)c12
380 | 50 |  |  |  |  |  |  | COc1ccc2[nH]nc(NC3CCN(Cc4ccc5c[nH]nc5c4)CC3)c2c1
2540 | 20 |  | 1 |  | 271 |  | 400 | O=C(c1cscn1)n1nc(NC2CCN(Cc3ccc4c(c3)OCO4)CC2)c2cc(Cl)ccc21
> 10000 | 40 |  |  |  |  |  |  | O=C(C1CC1)n1nc(NC2CCN(Cc3ccc4c(c3)OCO4)CC2)c2cc(Cl)ccc21
560 | 7 |  |  |  |  |  |  | Clc1ccc2c(c1)c(NC1CCN(Cc3ccc4c(c3)OCO4)CC1)nn2Cc1ccncc1
190 | 30 |  |  |  |  |  |  | COc1ccc2c(c1)c(NC1CCN(Cc3ccc4c(c3)OCO4)CC1)nn2C
1140 | 20 |  |  |  |  |  |  | O=C(CN1CCOCC1)n1nc(NC2CCN(Cc3ccc4c(c3)OCO4)CC2)c2cc(Cl)ccc21
930 | 20 |  | 2.3 |  | 63 |  | 164 | O=C(c1cccnc1)n1nc(NC2CCN(Cc3ccc4c(c3)OCO4)CC2)c2cc(Cl)ccc21
6200 | 200 |  |  |  |  |  |  | Clc1ccc(CN2CCC(Nc3[nH]nc4ccc(Cl)cc34)CC2)cc1
> 10000 | 50 |  |  |  |  |  |  | Clc1ccc2c(c1)c(NC1CCN(Cc3ccc4c(c3)OCO4)CC1)nn2-c1ccccc1
5230 | 40 |  |  |  |  |  |  | Clc1ccc2c(c1)c(NC1CCN(Cc3ccc4c(c3)OCO4)CC1)nn2Cc1ccccc1
60 | 8 | 4.9 | 3.9 | 6040 | 1410 | 28500 | 7630 | COc1ccc2[nH]nc(NC3CCN(Cc4ccc5c(c4)OCO5)CC3)c2c1
640 | 20 |  |  |  |  |  |  | Clc1ccc2c(c1)c(NC1CCN(Cc3ccc4ccccc4c3)CC1)nn2Cc1ccccn1
1820 | 40 |  |  |  |  |  |  | Clc1ccc2[nH]nc(NC3CCN(Cc4ccc5ccccc5c4)CC3)c2c1
520 | 30 |  |  |  |  |  |  | O=[N+]([O-])c1ccc2[nH]nc(NC3CCN(Cc4ccc5c(c4)OCCO5)CC3)c2c1
> 10000 | > 2000 |  |  |  |  |  |  | FC(F)(F)c1ccc2[nH]nc(NC3CCN(Cc4ccc5c(c4)OCO5)CC3)c2c1
260 | 20 | 2.9 | 3.1 | 12100 | 1880 | 59100 | 8760 | Clc1ccc2[nH]nc(NC3CCN(Cc4ccc5c(c4)OCO5)CC3)c2c1
350 | 5 |  |  |  |  |  |  | O=[N+]([O-])c1ccc2c(c1)c(NC1CCN(Cc3ccc4c(c3)OCO4)CC1)nn2Cc1ccccc1
